Assay results from ChEMBL document CHEMBL4373682, “Synergistic effect of tolfenamic acid and glycyrrhizic acid on TPA-induced skin inflammation in mice” (Medchemcomm, 2019).

Tests used:
Mus musculus [1] = assay: Antiinflammatory activity against TPA-induced ear edema in BALB/c mouse assessed as effect on weight of ear punches at 100 mg/kg, po administered 6 mins prior to TPA challenge and treated twice in 4 hrs and measured after 6 hrs post administration (reference value: 4.5 +/- 0.18 mg); type: functional
Mus musculus [2] = assay: Antiinflammatory activity against TPA-induced ear edema in BALB/c mouse assessed as inhibition of ear edema at 50 mg/kg, po administered 6 mins prior to TPA challenge and treated twice in 4 hrs and measured after 6 hrs post administration relative to control; type: functional
Mus musculus [3] = assay: Antiinflammatory activity against TPA-induced ear edema in BALB/c mouse assessed as inhibition of ear edema at 100 mg/kg, po administered 6 mins prior to TPA challenge and treated twice in 4 hrs and measured after 6 hrs post administration relative to control; type: functional
[4] = Tmax in rat at 10 to 480 mg/kg, po; type: ADME, organism-based; details: in vivo

Tmax [4]	Structure (SMILES)	Activity (Mus musculus [1])	inhibition in vivo at 50 mg/kg (Mus musculus [2])	inhibition in vivo at 100 mg/kg (Mus musculus [3])
–	CC(=O)Oc1ccccc1C(=O)O [ASPIRIN]	11.2 mg	–	–
–	CCc1cccc2c3c([nH]c12)C(CC)(CC(=O)O)OCC3 (stereo not given) [ETODOLAC]	11.1 mg	–	–
–	CC1(C)[C@@H](O[C@H]2O[C@H](C(=O)O)[C@@H](O)[C@H](O)[C@H]2O[C@@H]2O[C@H](C(=O)O)[C@@H](O)[C@H](O)[C@H]2O)CC[C@]2(C)[C@H]3C(=O)C=C4[C@@H]5C[C@@](C)(C(=O)O)CC[C@]5(C)CC[C@@]4(C)[C@]3(C)CC[C@@H]12 [GLYCYRRHIZIN]	12.7 mg	-5.41%	-10.8%
–	CC(C)Cc1ccc(C(C)C(=O)O)cc1 (stereo not given) [IBUPROFEN]	8.8 mg	–	–
–	COc1ccc2cc([C@H](C)C(=O)O)ccc2c1 [NAPROXEN]	11.5 mg	–	–
2 to 3 h	Cc1c(Cl)cccc1Nc1ccccc1C(=O)O [TOLFENAMIC ACID]	–	35.1%	51.4%
